According to patent US11202751B2, “Whitening cosmetic composition comprising Caragana sinica root extract” (CELLTRION, INC., priority 2015, dated 2021):

How the values were obtained:
[1] = system: B16F1 melanin-forming cell; experiment: Melanin production inhibition in B16F1 melanin-forming cells; type: cell-based; conditions: Mus musculus, B16-F1, 72 hours, read-out: Inhibition rate of melanin production (%)
Text: In order to confirm a whitening effect of the ethanol extract of Caragana Sinica root and the fraction thereof prepared in the above Examples 1 to 5, its effect on inhibiting a production of melanin was confirmed with regard to a B16F1 melanin-forming cell.
Specifically, the B16F1 melanin-forming cells, as a mouse-derived cell line, were obtained from American Type Culture Collection (ATCC) to use. The B16F1 melanin-forming cells were divided into a 6-well plate at a concentration of 2×10^5 per well, after which the cells were attached thereto, thus being divided at such a concentration as not to cause toxicity. […] After this 72-hour cultivation, the cells were taken off by trypsin-EDTA, after which the number of cells was measured, and then cells were collected by centrifugation. A quantification of melanin in cells was performed in such a way that modifying method of Lotan (Cancer Res., 40: 3345-3350, 1980). […] 1N NaOH (10% DMSO) was added to a cell lysate obtained through centrifugation (3,000 rpm, 10 minutes) so as to dissolve the extracted melanin, after which an absorbance of the melanin was measured by microplate reader at 405 nm, and the melanin was quantified to measure an inhibition rate of melanin production (%) of a sample. […]

[2] = system: B16F1 melanin-forming cell; experiment: Inhibition of α-MSH-induced melanin production in B16F1 cells; type: cell-based, mouse; conditions: for IC50: B16F1, 70 to 74 hours
Description: Specifically, the B16F1 melanin-forming cells, as a mouse-derived cell line, were obtained from American Type Culture Collection (ATCC) to use. The B16F1 melanin-forming cells were divided into a 6-well plate at a concentration of 2×10^5 per well, after which the cells were attached thereto, thus being divided at such a concentration as not to cause toxicity. After that, the ethanol extract of Caragana Sinica root and the fraction thereof obtained from the above Examples 1 to 5 were treated at each concentration, and then being cultured for 72 hours. After this 72-hour cultivation, the cells were taken off by trypsin-EDTA, after which the number of cells was measured, and then cells were collected by centrifugation. A quantification of melanin in cells was performed in such a way that modifying method of Lotan (Cancer Res., 40: 3345-3350, 1980). A cell pallet was washed once with PBS, after which 1 ml of a homogenization buffer solution (50 mM sodium phosphate, pH6.8, 1% Triton X-100, 2 mM PMSF) was added thereto and swirled for 5 minutes to crush the cells. 1N NaOH (10% DMSO) was added to a cell lysate obtained through centrifugation (3,000 rpm, 10 minutes) so as to dissolve the extracted melanin, after which an absorbance of the melanin was measured by microplate reader at 405 nm, and the melanin was quantified to measure an inhibition rate of melanin production (%) of a sample. The inhibition rate of melanin production (%) of the B16F1 melanin-forming cell was calculated according to the following [Mathematical formula 2], wherein results thereof were indicated at Table 3.
In order to confirm whitening effect of α-viniferin isolated from the fraction of Caragana Sinica root of the above Example 4, its effect on inhibiting a production of melanin was confirmed with regard to a B16F1 melanin-forming cell.
Specifically, the α-viniferin isolated from the ethyl acetate fraction of the ethanol extract of Caragana Sinica root obtained from the above Example 4 or arbutin, and α-MSH, a stimulant of melanin production, were treated at the same time, after which an amount of melanin was measured in 70 to 74 hours later as describe in the above Example 2-2.

[3] = system: tyrosinase, isolated and refined from a mushroom; experiment: Tyrosinase activity inhibition (absorbance at 475 nm, L-tyrosine substrate); type: biochemical
Description: A tyrosinase is an enzyme that promotes an oxidization process of a substance called tyrosine in vivo to produce a melanin. […] After that, 0.5 ml of a resulting L-tyrosine solution was inserted into a test tube, after which 0.5 ml of a sample fluid of the above Caragana Sinica root extract and the fraction thereof was added thereto, such that the test tube of a resulting mixture was left alone in a 37° C. constant temperature chamber for 10 minutes. […] The reaction was stopped by placing the test tube containing that reaction solution on ice to be rapidly cooled down, after which an absorbance of the resulting product was measured with a spectrophotometer at a wavelength of 475 nm. Control group was one containing 0.5 ml of a buffer solution instead of the Caragana Sinica root extract, and the comparison target was arbutin, well-known as a skin whitening agent. At that time, an inhibition rate of tyrosinase activity (%) was calculated according to the following Mathematical formula 1, wherein results thereof were shown in the following Table 2. [formula] [formula]

[4] = Stability of isolated α-viniferin at 50° C. (HPLC content); type: physicochemical; conditions: for content by HPLC / content relative to initial: 50° C.
Description: In order to confirm a stability of α-viniferin, the α-viniferin isolated from the ethyl acetate fraction of the ethanol extract of Caragana Sinica root obtained from the above Experimental Example 1 was stored under a condition of 50° C. for 2 weeks, after which content changes thereof were observed through an HPLC analysis by the same method of the above Experimental Example 1. A control group was kobophenol A isolated from the Caragana Sinica root extract, which was stored under the same condition with that of the α-viniferin, after which content changes thereof were observed by the same method.

Compound	inhibition at 100 µg/mL ([1]; 100 μg/ml) [%]	inhibition at 200 µg/mL ([1]; 200 μg/ml) [%]	inhibition at 100 µM ([2]; Mus musculus, B16-F1, 100 μM, read-out: inhibition rate of melanin production induced by α-MSH) [%]	inhibition at 200 µM ([2]; Mus musculus, B16-F1, 200 μM, read-out: inhibition rate of melanin production induced by α-MSH) [%]	inhibition at 400 µM ([2]; Mus musculus, B16-F1, 400 μM, read-out: inhibition rate of melanin production induced by α-MSH) [%]	IC50 ([2]; Mus musculus, B16-F1) [µM]	Inhibition rate of tyrosinase activity (%) ([3]; sample concentration 0.05%)	Inhibition rate of tyrosinase activity (%) ([3]; sample concentration 0.1%)	Inhibition rate of tyrosinase activity (%) ([3]; sample concentration 0.2%)	content change at high temperature (in words) ([4]; 50° C. for 2 weeks)	content by HPLC ([4]; 1 week) [ppm]	content relative to initial ([4]; 1 week) [%]	content by HPLC ([4]; 2 weeks) [ppm]	content relative to initial ([4]; 2 weeks) [%]	content by HPLC ([4]; Initial) [ppm]	inhibition at 4 µM ([2]; Mus musculus, B16-F1, 4 μM, read-out: inhibition rate of melanin production induced by α-MSH) [%]	inhibition at 6 µM ([2]; Mus musculus, B16-F1, 6 μM, read-out: inhibition rate of melanin production induced by α-MSH) [%]	inhibition at 8 µM ([2]; Mus musculus, B16-F1, 8 μM, read-out: inhibition rate of melanin production induced by α-MSH) [%]	whitening effect on α-MSH-induced melanin production, times higher than that of arbutin ([2]; ratio of IC50 values vs arbutin)
OC[C@H]1O[C@@H](Oc2ccc(O)cc2)[C@H](O)[C@@H](O)[C@@H]1O [Arbutin, arbutin]	63.5	75.7	13	44	73	242	21.2	38.4	78.7										
Oc1ccc(C2Oc3cc(O)cc4c3[C@@H]2c2cc(O)cc3c2C(c2cc(O)cc5c2[C@@H]4[C@H](c2ccc(O)cc2)O5)[C@H](c2ccc(O)cc2)O3)cc1 (stereo partly drawn) [α-viniferin]						7				not decreased	249.60	98.7	253.45	100.3	252.8	8	21	63	about 35 times
kobophenol A											115.6	95.2	103.6	85.3	121.4				
